Drawing on US11603349B2, “Anti-fibrotic compounds” (Certa Therapeutics Pty Ltd, priority 2017, dated 2023), this text covers IC50 and CC50 for 32 compounds.

For data set [1], the system named is TGF-β induced [14C]-proline incorporation in rat mesangial cells. Put plainly: [14C]-proline incorporation assay (collagen biosynthesis). The format is cell-based.
The nature of data set [2]: MTS tetrazolium reduction cell viability assay. The following applies: rat, rat mesangial cells (1097/IRMC cells), TGF-β1 stimulated, CC50 (μM), vs 1% DMSO vehicle. Background: Formazan colour is commonly taken as a measure of viable cells.
[3] abbreviates: Rattus norvegicus, Mesangial cell, 44 h, inhibition of TGF-β1 (1 ng/ml) induced [14C]-proline incorporation, IRMC cells.

Counter-ions that a name gives are not always drawn.

By IC50 is commonly meant the concentration at which inhibition is half-maximal. High values mean weaker potency in that assay, low ones greater potency in that assay. A word on the CC50: it is the concentration giving 50% cytotoxicity. A lower CC50 goes with harm at low concentration. For the compound `COc1ccc(/C=C/C(=O)Nc2ccccc2C(=O)O)cc1OCc1ccnn1C` [Example 67, (E)-2-(3-(4-methoxy-3-((1-methyl-1H-pyrazol-5-yl)methoxy)phenyl)acrylamido)benzoic acid], in data set [1] (setting [3]), the IC50 stood at 23.5 µM. Moreover, it took 144 µM to reach half-maximal cytotoxicity in data set [2] (CC50 at 48 h).

Compound `CN1C(=O)COc2ccc(/C=C/C(=O)Nc3ccccc3C(=O)O)cc21` [Example 112, (E)-2-(3-(4-methyl-3-oxo-3,4-dihydro-2H-benzo[b][1,4]oxazin-6-yl)acrylamido)benzoic acid] yielded an IC50 in data set [1] (setting [3]) of 13 µM. For the same compound, the CC50 at 48 h in data set [2] was greater than 300 µM.

Compound `C#CCOc1ccc(/C=C/C(=O)Nc2ccccc2-c2cnn(C)c2)cc1OC` [Example 22, (E)-3-(3-methoxy-4-(prop-2-yn-1-yloxy)phenyl)-N-(2-(1-methyl-1H-pyrazol-4-yl)phenyl)-acrylamide] gave an IC50 in data set [1] (Rattus norvegicus, Mesangial cell, 44 h) of 16.4 µM. The compound further yielded a CC50 at 48 h in data set [2] of 240 µM.

In data set [1] (setting [3]), `C#CCOc1ccc(/C=C/C(=O)Nc2ccccc2C(=O)O)c(OC2CCNCC2)c1OC` [Example 83, 2-[[(E)-3-[3-methoxy-2-(4-piperidyloxy)-4-prop-2-ynoxy-phenyl]prop-2-enoyl]amino]benzoic acid] came in with an IC50 of 32.5 µM. In data set [2], the CC50 at 48 h is greater than 300 µM.

`COc1cc(/C=C/C(=O)N2CCOc3ccccc32)ccc1OC1CCN(C)C1` (centres unmarked) [Example 118, (E)-1-(2H-benzo[b][1,4]oxazin-4(3H)-yl)-3-(3-methoxy-4-((1-methylpyrrolidin-3-yl)oxy)phenyl)prop-2-en-1-one] had an IC50 in data set [1] (setting [3]) of 14.3 µM. Also, the midpoint of cytotoxicity in data set [2], the CC50 at 48 h, lay at 25.5 µM.

Turning to `COc1cc(/C=C/C(=O)Nc2ccccc2C(=O)O)ccc1N1CCN(C)CC1` [Example 97, (E)-2-(3-(3-methoxy-4-(4-methylpiperazin-1-yl)phenyl)acrylamido)benzoic acid], it took 46.2 µM to reach half-maximal inhibition in data set [1] (setting [3]) (IC50). The compound also had a CC50 at 48 h in data set [2] greater than 300 µM.

In turn, `COc1ccc(/C=C/C(=O)Nc2ccccc2C(=O)O)cc1COC1CCN(C)CC1` [Example 70, (E)-2-(3-(4-methoxy-3-(((1-methylpiperidin-4-yl)oxy)methyl)phenyl)acrylamido)benzoic acid] returned an IC50 in data set [1] (setting [3]) of 49.8 µM. This compound came in with a CC50 at 48 h in data set [2] greater than 300 µM.

As to `C#CCOc1ccc(/C=C/C(=O)Nc2ccccc2C(=O)Nc2ccncc2)cc1OC` [Example 44, (E)-2-(3-(3-methoxy-4-(prop-2-yn-1-yloxy)phenyl)acrylamido)-N-(pyridin-4-yl)benzamide], the IC50 in data set [1] (setting [3]) was found to be 13.2 µM. Further, the CC50 at 48 h in data set [2] was 11.1 µM.

On to `COc1cc(/C=C/C(=O)Nc2ccccc2C(=O)O)ccc1CN1CCOCC1` [Example 69, (E)-2-(3-(3-methoxy-4-(morpholinomethyl)phenyl)acrylamido)benzoic acid], for which the IC50 in data set [1] (setting [3]) is 48.4 µM. The compound further gave a CC50 at 48 h in data set [2] of 691 µM.

In data set [1] (setting [3]), `COCc1cc(/C=C/C(=O)Nc2ccccc2C(=O)O)ccc1OC` [Example 73, (E)-2-(3-(4-methoxy-3-(methoxymethyl)phenyl)acrylamido)benzoic acid] gave an IC50 of 33.1 µM. The compound also yielded a CC50 at 48 h in data set [2] greater than 300 µM.

In turn, `C#CCOc1ccc(/C=C/C(=O)Nc2ccccc2C(=O)NS(C)(=O)=O)cc1OC` [Example 27, (E)-2-(3-(3-methoxy-4-(prop-2-yn-1-yloxy)phenyl)acrylamido)-N-(methylsulfonyl)benzamide] returned an IC50 in data set [1] (setting [3]) of 21.4 µM. In data set [2], this compound displayed a CC50 at 48 h of 120 µM.

`COc1cccc(/C=C/C(=O)Nc2ccccc2C#N)c1OCCN(C)C` [Example 92, (E)-N-(2-cyanophenyl)-3-(2-(2-(dimethylamino)ethoxy)-3-methoxyphenyl)acrylamide] returned an IC50 in data set [1] (setting [3]) of 49.2 µM. Also, in data set [2], half-maximal cytotoxicity (CC50 at 48 h) was put at 109 µM.

As for `C#CCOc1ccc(/C=C/C(=O)Nc2ccccc2C(=O)Nc2ccn(C)n2)cc1OC` [Example 48, (E)-2-(3-(3-methoxy-4-(prop-2-yn-1-yloxy)phenyl)acrylamido)-N-(1-methyl-1H-pyrazol-3-yl)benzamide], the 50% inhibitory concentration (IC50) in data set [1] (setting [3]) was found to be 23.9 µM. The compound also had a CC50 at 48 h in data set [2] of 309 µM.

With `C#CCOc1ccc(/C=C/C(=O)Nc2ccccc2-c2cn[nH]c2)cc1OC` [Example 24, (E)-N-(2-(1H-pyrazol-4-yl)phenyl)-3-(3-methoxy-4-(prop-2-yn-1-yloxy)phenyl)acrylamide], it took 13 µM to reach half-maximal inhibition in data set [1] (setting [3]) (IC50). Half-maximal cytotoxicity in data set [2] (CC50 at 48 h) was put at 41.4 µM.

In data set [1] (setting [3]), `C#CCOc1ccc(/C=C/C(=O)n2nc(O)c3ccccc32)cc1CC` [Example 126, (E)-3-(3-ethyl-4-(prop-2-yn-1-yloxy)phenyl)-1-(3-hydroxy-1H-indazol-1-yl)prop-2-en-1-one] displayed an IC50 of 3.81 µM. In data set [2], this compound returned a CC50 at 48 h greater than 27.5 µM.

For `COc1ccc(C2CC2C(=O)Nc2cccc(S(C)(=O)=O)c2)cc1OCc1cnn(C)c1` (centres unmarked) [Example 158, 2-(4-methoxy-3-((1-methyl-1H-pyrazol-4-yl)methoxy)phenyl)-N-(3-(methylsulfonyl)phenyl)cyclopropane-1-carboxamide], in data set [1] (setting [3]), the IC50 turned out to be 25.9 µM. In data set [2], this compound gave a CC50 at 48 h of 68.8 µM.

`C#CCOc1ccc(/C=C/C(=O)Nc2ccccc2F)cc1CC` [Example 123, (E)-3-(3-ethyl-4-(prop-2-yn-1-yloxy)phenyl)-N-(2-fluorophenyl)acrylamide] registered an IC50 in data set [1] (setting [3]) of 19.3 µM. In data set [2], this compound had a CC50 at 48 h greater than 300 µM.

With `C#CCOc1ccc(/C=C/C(=O)Nc2ccccc2C(=O)O)c(OCCN(C)C)c1OC` [Example 78, (E)-2-(3-(2-(2-(dimethylamino)ethoxy)-3-methoxy-4-(prop-2-yn-1-yloxy)phenyl)acrylamido)-benzoic acid], half-maximal inhibition in data set [1] (setting [3]) (IC50) required 30.4 µM. This compound registered a CC50 at 48 h in data set [2] of 404 µM.

Consider `C#CCOc1ccc(/C=C/C(=O)Nc2ccccc2C(=O)NCc2ccccn2)cc1OC` [Example 41, (E)-2-(3-(3-methoxy-4-(prop-2-yn-1-yloxy)phenyl)acrylamido)-N-(pyridin-2-ylmethyl)benzamide], for which inhibition in data set [1] (setting [3]) was half-maximal at 24.8 µM (IC50). In addition, the CC50 at 48 h in data set [2] came out at 341 µM.

For `C#CCOc1ccc(/C=C/C(=O)Nc2ccccc2-c2nn[nH]n2)cc1OC` [Example 16, (E)-N-(2-(2H-tetrazol-5-yl)phenyl)-3-(3-methoxy-4-(prop-2-yn-1-yloxy)phenyl)acrylamide], in data set [1] (setting [3]), the IC50 amounted to 22.3 µM. In data set [2], this compound yielded a CC50 at 48 h of 107 µM.

In turn, `COc1ccc(/C=C/C(=O)Nc2ccc(F)cc2)c(OCCN(C)C)c1OC` [Example 128, (E)-3-(2-(2-(dimethylamino)ethoxy)-3,4-dimethoxyphenyl)-N-(4-fluorophenyl)acrylamide trifluoroacetic acid salt] registered an IC50 in data set [1] (setting [3]) of 11.5 µM. The CC50 at 48 h in data set [2] worked out at 24.4 µM.

With `COc1ccc(/C=C/C(=O)Nc2ccccc2C(=O)O)cc1OCCc1ccncc1` [Example 65, (E)-2-(3-(4-methoxy-3-(2-(pyridin-4-yl)ethoxy)phenyl)acrylamido)benzoic acid], the IC50 in data set [1] (setting [3]) turned out to be 18.3 µM. In data set [2], this compound came in with a CC50 at 48 h of 152 µM.

`C#CCOc1ccc(/C=C/C(=O)Nc2ccccc2C(=O)NCCN(C)C)cc1OC` [Example 30, (E)-N-(2-(dimethylamino)ethyl)-2-(3-(3-methoxy-4-(prop-2-yn 1 yloxy)phenyl)acrylamido) benzamide] yielded an IC50 in data set [1] (setting [3]) of 11.8 µM. Further, in data set [2], the CC50 at 48 h stood at 37.2 µM.

`C#CCOc1ccc(/C=C/C(=O)Nc2ccccc2Br)cc1OC` [Example 4, (E)-N-(2-bromophenyl)-3-(3-methoxy-4-(prop-2-yn-1-yloxy)phenyl)acrylamide]: the IC50 in data set [1] (setting [3]) came out at 4.32 µM. The same compound yielded a cytotoxic concentration (CC50) at 48 h in data set [2] of 323 µM.

`COc1cc(C2CC2C(=O)Nc2ccccc2Cl)ccc1OCC1COC1` (centres unmarked) [Example 155, N-(2-chlorophenyl)-2-(3-methoxy-4-(oxetan-3-ylmethoxy)phenyl)cyclopropane-1-carboxamide] yielded an IC50 in data set [1] (setting [3]) of 18.7 µM. Besides, in data set [2], the midpoint of cytotoxicity, the CC50 at 48 h, lay at 196 µM.

In data set [1] (setting [3]), `C#CCOc1ccc(/C=C/C(=O)Nc2ccccc2-c2cn(C)cn2)cc1OC` [Example 26, (E)-3-(3-methoxy-4-(prop-2-yn-1-yloxy)phenyl)-N-(2-(1-methyl-1H-imidazol-4-yl)phenyl)acrylamide] gave an IC50 of 13.5 µM. Also, the CC50 at 48 h in data set [2] is 190 µM.

For `C#CCOc1ccc(/C=C/C(=O)Nc2ccccc2C(=O)NCc2cccnc2)cc1OC` [Example 43, (E)-2-(3-(3-methoxy-4-(prop-2-yn-1-yloxy)phenyl)acrylamido)-N-(pyridin-3-ylmethyl)benzamide], the IC50 in data set [1] (setting [3]) came out at 44.6 µM. Besides, the CC50 at 48 h in data set [2] was greater than 300 µM.

In the case of `C#CCOc1ccc(/C=C/C(=O)Nc2ccccc2C#N)c(OCCN2CCOCC2)c1OC` [Example 85, (E)-N-(2-cyanophenyl)-3-[3-methoxy-2-(2-morpholinoethoxy)-4-prop-2-ynoxy-phenyl]prop-2-enamide], inhibition in data set [1] (setting [3]) was half-maximal at 8.92 µM (IC50). In data set [2], this compound came in with a CC50 at 48 h of 109 µM.

In data set [1] (setting [3]), `COc1cc(C2CC2C(=O)Nc2ccc(Cl)cc2)ccc1OCC1COC1` (centres unmarked) [Example 154, N-(4-chlorophenyl)-2-(3-methoxy-4-(oxetan-3-ylmethoxy)phenyl)cyclopropane-1-carboxamide] came in with an IC50 of 8.97 µM. Also, the CC50 at 48 h in data set [2] is greater than 300 µM.

Take `C#CCOc1ccc(/C=C/C(=O)Nc2ccccc2C#N)c(OC2CCN(C)C2)c1OC` (centres unmarked) [Example 81, (E)-N-(2-cyanophenyl)-3-[3-methoxy-2-(1-methylpyrrolidin-3-yl)oxy-4-prop-2-ynoxy-phenyl]prop-2-enamide]: inhibition in data set [1] (setting [3]) was half-maximal at 7.15 µM (IC50). It took 24.9 µM to reach half-maximal cytotoxicity in data set [2] (CC50 at 48 h).

`C#CCOc1ccc(/C=C/C(=O)Nc2ccccc2C(=O)O)cc1OC` [FT011, (E)-2-(3-(3-methoxy-4-(prop-2-yn-1-yloxy)phenyl)acrylamido)benzoic acid, reference compound]: the IC50 in data set [1] (setting [3]) is 17 µM; in data set [1] (inhibition of TGF-β1 (1 ng/ml) induced [14C]-proline incorporation, IRMC cells, 44 hours), 16 µM. Also, in data set [2], the CC50 at 48 h came out at 119 µM.

With `COc1cc(/C=C/C(=O)Nc2ccccc2C(=O)O)ccc1OCc1c(C)noc1C` [Example 52, (E)-2-(3-(4-((3,5-dimethylisoxazol-4-yl)methoxy)-3-methoxyphenyl)acrylamido)benzoic acid], the IC50 in data set [1] (setting [3]) turned out to be 11.3 µM. The compound also returned a CC50 at 48 h in data set [2] of 140 µM.
